Patent publication US5770595A, “Oxime substituted therapeutic compounds” (Cell Therapeutics, Inc., priority 1994, dated 1998)

Experiments:
[1] = test system: ras-transformed NIH/3T3 cells
[2] = test system: ras transformation in NIH/3T3 cells; test: generation of DAG and PA in ras-transformed NIH/3T3 cells; format: cell-based; details: pretreatment of cells; 4-12 hours
Description: For example, activating ras mutations result in increased generation of DAG upon stimulation with mitogens, although the sources of DAG differ between experimental systems. In nontransformed renal mesangial cells, IL-1β stimulation increased PLA2 and LPAAT activation, resulting in generation of sn-2 unsaturated PA and subsequent hydrolysis to DAG by phosphatidate phosphohydrolase. The ras transformation in NIH/3T3 cells upregulates serum-stimulated generation of DAG and PA. Particular species of DAG that is stimulated by serum is dioleoyl and of PA are dilinoleoyl and dioleoyl. […] The inhibition occurs either through suppressing the generation of PA de novo from lysoPA, or through inhibition of one or both arms of the Lands cycle. […] Therefore, the ras transformation mediates an upregulation of PA through indirect stimulation of PLA2 and/or LPAAT activity.

[3] = test system: polymorphonuclear leukocytes; details: cited from earlier work
PAPH = test: inhibition of PAPH / DAG formation in specific activation pathway; format: biochemical, human; details: specific activation pathway that does not involve PI
Description: The compounds and pharmaceutical compositions of the invention include inhibitors of subspecies of LPAAT and PAPH enzymes with substrate specificity for intermediates with 1,2-diunsaturated and 1-alkyl, 2-unsaturated subspecies. One representative example of such an inhibitor (although not within the genus of inventive compounds) is PTX. […] It should be emphasized that the compounds of the invention affect that subset of PAPH and LPAAT that relates to substrates with unsaturated fatty acids other than arachidonate in the sn-2 position, not the housekeeping forms of these enzymes that serve the PI pathway.
(§1) One in vitro assay measures inhibition of the relevant enzymes lysophosphatidic acid acyltransferase (LPAAT) and phosphatidic acid phosphoryl hydrolase (PAPH). […] It is important to note that the assay method permits discrimination between various forms of PA and DAG so that those relevant to the pathway affected by the (R) or (S) compounds of the invention can be measured directly. […] Thus, the relevant unsaturated (non-arachidonic) PA and DAG subspecies may be detected. […]

L929 cells = test: TNF-α-mediated cytotoxicity in L929 cells; format: cell-based, murine; details: human TNF-α 300 pg/ml; FIG. 9
Experimental: An inventive compound can be assayed for activity protecting TNF-mediated cytotoxicity. In this assay, L929 murine fibroblast cells (10^4 cells per well) are incubated with either compounds at varying doses and media control for two hrs. […] The cells plus (or minus) drug plus TNF were incubated for 40 hrs at 37° C. The media is removed and replaced with fresh media containing 2% serum and 10 μg/ml of BCECF fluorescent dye and incubated for 30 min. The fluorescent dye-containing media is removed and replaced with PBS (phosphate buffered saline) and each well was assayed for fluorescence.
This assay is a model for septic shock. L929 cells (10^5) were treated with human TNF-α at 300 pg/ml in RPMI media containing 10% fetal calf serum with or without compound no. One day later, the cells were stained for viability using the fluorescent dye BCECF and fluorescence of the samples was analyzed using a Milipore plate reader.

[4] = test system: tumor necrosis factor (TNF); details: normal volunteers; cited from earlier work
LPAAT = test: formation of remodeled PA at LPAAT; format: biochemical
Description: Even in the presence of PTX, cells continue to form PA through the action of PLD, and DAG is also formed through the action of phospholipase C on PC and PI. The latter pathway are not inhibited by the inventive compounds or PTX. In PTX-treated cells, DAG derived from remodeled and PLA-generated PA is diminished (e.g., 1,2-sn-dioleoyl DAG, 1-alkyl, 2-linoleoyl DAG and 1-alkyl, 2-docosahexaneolyl DAG). Therefore, the inventive compounds and PTX inhibit the formation of only a certain species of PA and DAG by selectively inhibiting a specific second messenger pathway that is only activated in cells by noxious stimuli, but is not used to signal normal cellular housekeeping functions.
as §1

For CC(=O)CCCCn1c(=O)c2c(ncn2C)n(C)c1=O [PTX, 1-(5-oxohexyl)-3,7-dimethylxanthine], which “inhibition of ras-transformed NIH/3T3 cells relative to parental cells” value [1] is on record?
Its value is “inhibits ras-transformed NIH/3T3 cells more than parental cells”.

And the “reversibility / cytotoxicity of inhibition” value [1]?
Its value is “reversible and is not associated with significant cytotoxicity”.

What about the “generation of phospholipid second messengers (DAG, PA)” value [2] of the same molecule?
The value was “blocks generation of these phospholipid second messengers”.

And the “inhibition of cytokine activity to affect chemotaxis” value ([3]; U.S. Pat. Nos. 4,965,271 and 5,096,906)?
Its value is “inhibit activity of certain cytokines to affect chemotaxis”.

And the “stimulation of chemotaxis in polymorphonuclear leukocytes” value ([3]; in response to a stimulator of chemotaxis, U.S. Pat. No. 4,636,507)?
The value was “stimulate chemotaxis in polymorphonuclear leukocytes”.

What about the “blocking of PAPH” value (PAPH) of the same molecule?
The value was “blocks PAPH in a specific activation pathway”.

And the “protection of L929 cells from TNF-induced cytotoxicity” value (L929 cells)?
The value was “inhibited TNF-induced cytotoxicity in a dose dependent manner”.

What about the TNF levels [4] of the same molecule?
The TNF levels was “TNF levels were higher among PTX recipients”.

And the “DAG derived from remodeled and PLA-generated PA” value (LPAAT; PTX-treated cells)?
The value was “diminished”.

What about the “formation of remodeled PA” value (LPAAT; in vitro, high PTX concentrations) of the same molecule?
Its value is “blocks formation of remodeled PA through the PA/DAG pathway at high PTX concentrations”.
